We go through 9 compounds from patent publication US9156815B2, “Salt of (R)-3-(6-amino-pyridin-3-yl)-2-(1-Cyclohexyl-1H-imidazol-4-yl) ethyl propionate” (Sanofi, priority 2011, dated 2015).

Holding throughout (assay type): physicochemical
Data set [1] can be described thus: Salt screening of the API with acids and solvents, XRPD measurement. On the set-up: key: NKP means no crystalline phase; KFA means free acid crystallizes. To be noted: API + acid. The procedure:
The molar ratio between the H^+ concentration of the acid and of the API is 2 (for details see table 2). In each cavity of the microtiter plate, 68 microliters of the dissolved API are mixed with 40 microliters of the 0.1 normal acid solutions.
68 microliters of the dissolved API are pipetted into each cavity of a 96 microtiter plate. Then, in each case 40 microliters of the acids dissolved as in table 2 are added according to the scheme as detailed in table 3. The microtiter plate is shaken at room temperature for 20 min so that an equilibrium is formed in the cavities. Evaporation of the solvents at room temperature in a stream of nitrogen for 2 hours. Then, in each case 40 microliters of the solvents according to the scheme as detailed in table 3 are added. The microtiter plate is shaken at room temperature for 20 min so that an equilibrium is formed in the cavities. Evaporation of the solvent then takes place at room temperature in a stream of nitrogen for 2 hours. Finally, XRPD measurement is carried out.

Data set [2] is described as follows: Physical stability, storage for 14 days (XRPD, thermogravimetry). To be noted: stored 14 days under conditions (A) to (D). The procedure:
Representative samples of the crystalline salt of (R)-3-(6-aminopyridin-3-yl)-2-(1-cyclohexyl-1H-imidazol-4-yl)propionic acid ethyl ester with naphthalene-1,5-disulfonic acid prepared as in example 1 are stored for 14 days under the conditions (A), (B), (C) and (D): • (A) 50° C. • (B) 50° C. and 80% relative atmospheric humidity • (C) 80° C. • (D) 80° C. and 80% relative atmospheric humidity Results:
Only a slight loss in mass during the thermogravimetric measurements (apparatus TA Instruments: TGA Q500, atmospheric nitrogen; rate 10° C./min) is observed, which is attributed to the release of water from the crystals.

A short description of data set [3]: Chiral stability, storage for 14 days (chiral HPLC). As to the method:
Representative samples of the crystalline salt of (R)-3-(6-aminopyridin-3-yl)-2-(1-cyclohexyl-1H-imidazol-4-yl)propionic acid ethyl ester with naphthalene-1,5-disulfonic acid prepared as in example 1 are stored for 14 days under the conditions (A), (B), (C) and (D) described in example 4:
The measurements were carried out using chromatography on chiral phase as described in example 1.
Chiral HPLC: (Chiralcel OD-H/84 (250×4.6 mm), heptane:Isopropanol:Acetonitrile 15:1:0.5+0.1% diethylamine (DEA), 30° C., 1 ml/min): Rt=27.01 min.

Where a name gives a salt, the structure may show the parent alone.

Take Adipic acid: the “XRPD result of salt screening” value in data set [1] (solvent 2-Methyl-1-propanol), in data set [1] (solvent 2-Propanol), in data set [1] (solvent Butyl acetate), in data set [1] (solvent Ethanol), in data set [1] (solvent Methanol) and in data set [1] (solvent Methyl ethyl ketone) was “KFA” each time. In addition, the figures for the “XRPD result of salt screening” value in data set [1] (solvent Water) and in data set [1] (solvent Water:methanol 1:1) were “KFA” and “NKP”, respectively.
Consider `CCOC(=O)[C@H](Cc1ccc(N)nc1)c1cn(C2CCCCC2)cn1` [Example 1, crystalline salt of (R)-3-(6-aminopyridin-3-yl)-2-(1-cyclohexyl-1H-imidazol-4-yl)propionic acid ethyl ester with naphthalene-1,5-disulfonic acid], for which the “XRPD measurements at the start and after 14 days” value in data set [2] is “close together”. The “increase of the (S) enantiomer” value turned out to be 0.2% in data set [3] (14 days, 50° C. (A)); 0.2% in data set [3] (14 days, 50° C. and 80% relative atmospheric humidity (B)); 2.7% in data set [3] (14 days, 80° C. and 80% relative atmospheric humidity (D)). In addition, the “change of enantiomeric purity” value in data set [3] (14 days, 80° C. (C)) is on record as “no change”. The Enantiomeric purity in data set [3] (14 days, storage condition (A) 50° C.) stood at 98.8%; in data set [3] (14 days, storage condition (B) 50° C. and 80% relative atmospheric humidity) it was 98.8%; in data set [3] (14 days, storage condition (C) 80° C.), 99.0%; in data set [3] (14 days, storage condition (D) 80° C. and 80% relative atmospheric humidity), 96.3%; in data set [3] (at the start of the measurement) it was 99.0%.
Consider Tartaric acid, for which the “XRPD result of salt screening” value in data set [1] (solvent 2-Methyl-1-propanol), in data set [1] (solvent 2-Propanol), in data set [1] (solvent Butyl acetate), in data set [1] (solvent Ethanol), in data set [1] (solvent Methanol) and in data set [1] (solvent Methyl ethyl ketone) was “NKP” throughout. The “XRPD result of salt screening” value in data set [1] (solvent Water) and in data set [1] (solvent Water:methanol 1:1) was “NKP” in each case.
For Fumaric acid, the “XRPD result of salt screening” value in data set [1] (solvent 2-Methyl-1-propanol), in data set [1] (solvent 2-Propanol), in data set [1] (solvent Butyl acetate), in data set [1] (solvent Ethanol), in data set [1] (solvent Methanol) and in data set [1] (solvent Methyl ethyl ketone) was “NKP” throughout. The “XRPD result of salt screening” value in data set [1] (solvent Water) and in data set [1] (solvent Water:methanol 1:1) was “NKP” throughout.
For Benzoic acid, the “XRPD result of salt screening” value in data set [1] (solvent 2-Methyl-1-propanol), in data set [1] (solvent 2-Propanol), in data set [1] (solvent Butyl acetate), in data set [1] (solvent Ethanol), in data set [1] (solvent Methanol) and in data set [1] (solvent Methyl ethyl ketone) was “KFA” in each case. In addition, the “XRPD result of salt screening” value in data set [1] (solvent Water) was “KFA”; in data set [1] (solvent Water:methanol 1:1) it was “NKP”.
On to Sulfuric acid, for which the “XRPD result of salt screening” value in data set [1] (solvent 2-Methyl-1-propanol), in data set [1] (solvent 2-Propanol), in data set [1] (solvent Butyl acetate), in data set [1] (solvent Ethanol), in data set [1] (solvent Methanol) and in data set [1] (solvent Methyl ethyl ketone) was “NKP” each time. The “XRPD result of salt screening” value in data set [1] (solvent Water) and in data set [1] (solvent Water:methanol 1:1) was “NKP” throughout.
On to Glucuronic acid, for which the “XRPD result of salt screening” value in data set [1] (solvent 2-Methyl-1-propanol), in data set [1] (solvent 2-Propanol), in data set [1] (solvent Butyl acetate), in data set [1] (solvent Ethanol), in data set [1] (solvent Methanol) and in data set [1] (solvent Methyl ethyl ketone) was “NKP” each time. Moreover, the “XRPD result of salt screening” value in data set [1] (solvent Water) and in data set [1] (solvent Water:methanol 1:1) was “NKP” in each case.
Turning to Citric acid, the “XRPD result of salt screening” value in data set [1] (solvent 2-Methyl-1-propanol), in data set [1] (solvent 2-Propanol), in data set [1] (solvent Butyl acetate), in data set [1] (solvent Ethanol), in data set [1] (solvent Methanol) and in data set [1] (solvent Methyl ethyl ketone) was “NKP” in each case. Also, the “XRPD result of salt screening” value in data set [1] (solvent Water) and in data set [1] (solvent Water:methanol 1:1) was “NKP” each time.
Consider Malonic acid, for which the “XRPD result of salt screening” value in data set [1] (solvent 2-Methyl-1-propanol), in data set [1] (solvent 2-Propanol), in data set [1] (solvent Butyl acetate), in data set [1] (solvent Ethanol), in data set [1] (solvent Methanol) and in data set [1] (solvent Methyl ethyl ketone) was “NKP” in each case. Moreover, the “XRPD result of salt screening” value in data set [1] (solvent Water) and in data set [1] (solvent Water:methanol 1:1) was “NKP” each time.
